Non-standard residues stand in square brackets, D forms with d. Residues, ends and D or L forms follow the SMILES beside them. pGlu = O=C1CC[C@@H](C(=O)O)N1
What was measured:
[1] = Storage stability in aqueous solution followed by HPLC (FIG. 1); format: physicochemical; details: storage at 4° C. for 13 days, in vitro
Procedure: FIG. 1 is a high pressure liquid chromatography (HPLC) chromatogram of protransduzin A and protransduzin B.
In the left column of FIG. 1 (HPLC chromatogram), results for protransduzin A upon storage for 0-13 days at −20° C. and at 4° C. (13 days) are compared with the results for protransduzin B under the same conditions.

cells = test: Transduction of cells with protransduzin B (vectors preincubated with peptide fibrils); format: cell-based; details: protransduzin B 25 μg/ml added to vectors, cells incubated 2 days
Procedure: Dissolve 0.5 mg of protransduzin B in 50 μl of DMSO. Then add 450 μl of PBS to the solution, fibrils forming within 3 min. Add this stock solution (1 mg/ml) to the vectors to obtain a concentration of protransduzin B of 25 μg/ml. Vortex the solution for 1 min, then centrifuge with 5000 g for 5 min. The supernatant is discarded, and the pellet is suspended in a little PBS and added to the cells. The cells are incubated in an incubator for 2 days.

With `CC[C@H](C)[C@H](NC(=O)[C@H](CCCCN)NC(=O)[C@H](CS)NC(=O)[C@@H]1CCC(=O)N1)C(=O)N[C@@H](CCCCN)C(=O)N[C@@H](CCC(N)=O)C(=O)N[C@H](C(=O)N[C@H](C(=O)N[C@@H](CC(N)=O)C(=O)N[C@@H](CCSC)C(=O)N[C@@H](Cc1c[nH]c2ccccc12)C(=O)N[C@@H](CCC(N)=O)C(=O)O)[C@@H](C)CC)[C@@H](C)CC` [protransduzin B] ([pGlu]CKIKQIINMWQ-OH) the “degradation upon storage (HPLC peak height)” value [1] was “hardly degraded at all”, the cells transduced (cells) was “Up to 96%” and the transduction rate (cells) was “significantly enhanced”.
